Assay results published in patent US6673565B2 (priority 1999, dated 2004).

What was measured:
Butyrylcholinesterase = Butyrylcholinesterase (Homo sapiens, UniProt P06276); type: biochemical
Urease = Urease (Canavalia ensiformis, UniProt P07374); type: biochemical
Chain of Urease (P07374 whole entry, looked up): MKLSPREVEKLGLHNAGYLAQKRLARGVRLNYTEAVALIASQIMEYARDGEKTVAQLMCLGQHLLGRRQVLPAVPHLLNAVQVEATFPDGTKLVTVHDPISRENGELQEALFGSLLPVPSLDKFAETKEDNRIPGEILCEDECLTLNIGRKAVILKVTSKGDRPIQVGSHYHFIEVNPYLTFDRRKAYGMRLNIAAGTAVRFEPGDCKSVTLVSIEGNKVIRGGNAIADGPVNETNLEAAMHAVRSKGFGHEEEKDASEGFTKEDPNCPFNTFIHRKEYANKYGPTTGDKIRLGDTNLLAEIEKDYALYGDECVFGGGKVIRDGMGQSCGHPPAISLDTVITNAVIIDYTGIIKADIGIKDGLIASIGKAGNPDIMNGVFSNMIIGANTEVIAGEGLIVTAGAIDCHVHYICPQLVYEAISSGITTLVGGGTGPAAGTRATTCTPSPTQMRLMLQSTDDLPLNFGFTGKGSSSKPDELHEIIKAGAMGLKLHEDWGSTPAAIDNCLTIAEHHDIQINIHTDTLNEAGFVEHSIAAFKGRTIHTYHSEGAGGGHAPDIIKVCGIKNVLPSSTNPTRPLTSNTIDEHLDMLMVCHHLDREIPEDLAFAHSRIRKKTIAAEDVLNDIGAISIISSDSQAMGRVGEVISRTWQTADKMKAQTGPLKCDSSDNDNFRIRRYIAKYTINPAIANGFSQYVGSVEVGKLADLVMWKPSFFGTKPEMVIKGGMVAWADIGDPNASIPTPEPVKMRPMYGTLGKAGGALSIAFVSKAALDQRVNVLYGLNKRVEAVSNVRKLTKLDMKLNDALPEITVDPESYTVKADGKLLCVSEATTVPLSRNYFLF

Chain of Butyrylcholinesterase (P06276 29-602): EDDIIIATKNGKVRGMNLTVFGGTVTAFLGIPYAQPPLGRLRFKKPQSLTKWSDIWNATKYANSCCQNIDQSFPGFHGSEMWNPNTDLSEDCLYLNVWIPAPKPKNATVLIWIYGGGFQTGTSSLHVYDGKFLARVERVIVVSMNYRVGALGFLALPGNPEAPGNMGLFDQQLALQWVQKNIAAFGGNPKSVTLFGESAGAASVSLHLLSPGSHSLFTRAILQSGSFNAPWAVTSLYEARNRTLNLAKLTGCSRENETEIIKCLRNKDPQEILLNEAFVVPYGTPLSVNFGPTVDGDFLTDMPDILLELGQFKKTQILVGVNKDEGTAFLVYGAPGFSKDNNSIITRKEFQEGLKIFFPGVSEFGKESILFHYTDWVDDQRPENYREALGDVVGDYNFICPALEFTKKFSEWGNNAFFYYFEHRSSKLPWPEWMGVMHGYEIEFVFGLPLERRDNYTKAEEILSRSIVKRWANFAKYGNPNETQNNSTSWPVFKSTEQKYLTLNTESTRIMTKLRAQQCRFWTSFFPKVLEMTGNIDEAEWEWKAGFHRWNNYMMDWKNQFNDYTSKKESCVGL

Structure (SMILES)	Inhibition of BChE polymer used to wipe paraoxon-containing beakers (Butyrylcholinesterase)	Color change of urease/m-cresol purple polymer disks (Urease)
CCOP(=O)(OCC)Oc1ccc([N+](=O)[O-])cc1 [paraoxon, Paraoxon]	complete inhibition	
NC(N)=O [urea]		transition from yellow to blue
